The target of one data set is T1, CYP2C19 (Homo sapiens, UniProt P33261).
T1 construct: purchased BD Gentest, Becton-Dickinson (Supersomes); host or cells: insect cells
The data set can be described thus: Cytochrome P450 inhibition, CYP2C19. In kind it is in vitro ADME. Conditions: read-out: IC50 2C19. An excerpt: (§1) K. Assay for Cytochrome P450 Inhibition
(§2) Cytochrome P450 enzymes are implicated in the phase I metabolism of drugs. The majority of drug-drug interactions are metabolism-based and, moreover, these interactions typically involve inhibition of cytochrome P450s. Six CYP450 enzymes (CYP1A2, CYP2C8, CYP2C9, CYP2C19, CYP2D6 and CYP3A4) appear to be commonly responsible for the metabolism of most drugs and the associated drug-drug interactions. Assays to determine the binding of compounds of the invention to the various metabolically important isoforms of cytochrome P450 metabolizing enzymes are commercially available, for example NoAb BioDiscoveries (Mississaugua, ON, Canada) and Absorption Systems (Exton, Pa., USA). As well, a number of appropriate methods have been described or reviewed in the literature. (White, R. E. Ann. Rev. Pharmacol. Toxicol. 2000, 40, 133-157; Li, A. P. Drug. Disc. Today 2001, 6, 357-366; Turpeinen, M.; Korhonen, L. E. Tolonen, A.; et al. Eur. J. Pharm. Sci, 2006, 29, 130-138.)
(§3) The key aspects of the experimental method were as follows: • 1. […] Assays monitored, via fluorescence detection, the formation of a fluorescent metabolite following incubation of the microsomes with a specific CYP substrate. • 3. Compounds of the present invention were tested in duplicate samples at eight test concentrations using 3-fold serial dilutions (concentration range of 0.0457 to 100 μM). • 4. For each CYP-450 enzyme, a specific inhibitor was tested in duplicate at eight concentrations as a positive control. • 5. The concentration of the inhibitor or test compound that inhibited metabolite formation by 50% (IC50) was calculated by non-linear regression analysis of the % inhibition vs. log concentration (M) curve.

The target of another data set is T2, CYP2E1 (Homo sapiens, UniProt P05181).
T2 construct: purchased BD Gentest, Becton-Dickinson (Supersomes); host or cells: insect cells
T2 sequence (P05181 whole entry): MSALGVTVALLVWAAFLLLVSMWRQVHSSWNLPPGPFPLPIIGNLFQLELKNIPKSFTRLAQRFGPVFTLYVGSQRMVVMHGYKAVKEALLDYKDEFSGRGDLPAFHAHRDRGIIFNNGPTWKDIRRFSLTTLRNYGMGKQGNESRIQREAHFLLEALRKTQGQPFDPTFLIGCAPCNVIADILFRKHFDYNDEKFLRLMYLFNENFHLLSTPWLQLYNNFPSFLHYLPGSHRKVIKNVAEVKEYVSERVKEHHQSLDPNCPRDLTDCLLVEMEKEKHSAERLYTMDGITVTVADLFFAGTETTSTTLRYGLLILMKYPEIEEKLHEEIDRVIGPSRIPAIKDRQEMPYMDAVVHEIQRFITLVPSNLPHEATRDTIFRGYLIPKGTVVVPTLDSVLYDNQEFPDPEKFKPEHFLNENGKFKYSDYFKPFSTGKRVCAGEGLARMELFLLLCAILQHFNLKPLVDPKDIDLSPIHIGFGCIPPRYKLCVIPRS
The data set can be described thus: Cytochrome P450 inhibition, CYP2E1. Conditions: read-out: IC50 2E1. In kind it is in vitro ADME.
Excerpt: as §1, §2, §3

A further data set deals with fasted rats. The data set can be described thus: Gastric emptying in fasted rat model, standard method E. In kind it is in vivo. Conditions: for Percent Increase in Gastric Emptying After Oral Administration: average where repeated. The method in brief: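 Overnight-fasted male Wistar rats (200 g, n=5/group) received a 2 mL 2% methylcellulose meal labelled with 0.05% phenol red by gavage, then oral test article (typically 1–30 mg/kg) at t=0. At 15 min, stomach phenol red was measured colorimetrically at 560 nm; ≥30% increase in emptying vs vehicle deemed significant (ANOVA/Dunnett).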

The next data set concerns the target T3, CYP2D6 (Homo sapiens, UniProt P10635).
T3 construct: purchased BD Gentest, Becton-Dickinson (Supersomes); host or cells: insect cells
The data set can be described thus: Cytochrome P450 inhibition, CYP2D6. Particulars: read-out: IC50 2D6. In kind it is in vitro ADME.
Excerpt: as §1, §2, §3

A further data set has as its target T4, CYP2C9 (Homo sapiens, UniProt P11712).
T4 construct: purchased BD Gentest, Becton-Dickinson (Supersomes); host or cells: insect cells
Briefly: Cytochrome P450 inhibition, CYP2C9. In kind it is in vitro ADME. Conditions: read-out: IC50 2C9.
Excerpt: as §1, §2, §3

For another data set, the target named is T5, CYP1A2 (Homo sapiens, UniProt P05177).
T5 construct: purchased BD Gentest, Becton-Dickinson (Supersomes); host or cells: insect cells
T5 sequence (P05177 1-516): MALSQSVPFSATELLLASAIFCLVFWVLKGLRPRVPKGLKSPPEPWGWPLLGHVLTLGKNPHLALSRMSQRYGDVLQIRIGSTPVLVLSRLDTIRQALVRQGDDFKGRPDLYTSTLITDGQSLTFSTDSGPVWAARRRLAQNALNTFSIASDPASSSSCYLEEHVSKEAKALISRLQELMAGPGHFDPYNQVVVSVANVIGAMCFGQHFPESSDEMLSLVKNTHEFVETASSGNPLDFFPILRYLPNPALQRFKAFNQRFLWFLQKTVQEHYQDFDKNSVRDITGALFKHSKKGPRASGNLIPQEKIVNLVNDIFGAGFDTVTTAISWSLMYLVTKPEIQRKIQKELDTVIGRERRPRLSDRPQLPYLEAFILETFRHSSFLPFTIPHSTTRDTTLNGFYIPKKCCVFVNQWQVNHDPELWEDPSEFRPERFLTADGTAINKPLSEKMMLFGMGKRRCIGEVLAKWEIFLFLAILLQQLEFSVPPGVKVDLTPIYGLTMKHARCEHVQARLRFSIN
The data set can be described thus: Cytochrome P450 inhibition, CYP1A2. In kind it is in vitro ADME. Particulars: read-out: IC50 1A2.
Excerpt: as §1, §2, §3

Data set [1] is described as follows: Pharmacokinetic analysis (oral bioavailability, elimination half-life) in the rat. Conditions: oral administration, HPLC-MS. In kind it is in vivo. The method in brief: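 Rat, oral dosing at 8 mg/kg (one compound at 2 mg/kg). Plasma levels by HPLC-MS, giving oral bioavailability and elimination half-life.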

The structures appear in SMILES notation.

T4 sequence (P11712 whole entry): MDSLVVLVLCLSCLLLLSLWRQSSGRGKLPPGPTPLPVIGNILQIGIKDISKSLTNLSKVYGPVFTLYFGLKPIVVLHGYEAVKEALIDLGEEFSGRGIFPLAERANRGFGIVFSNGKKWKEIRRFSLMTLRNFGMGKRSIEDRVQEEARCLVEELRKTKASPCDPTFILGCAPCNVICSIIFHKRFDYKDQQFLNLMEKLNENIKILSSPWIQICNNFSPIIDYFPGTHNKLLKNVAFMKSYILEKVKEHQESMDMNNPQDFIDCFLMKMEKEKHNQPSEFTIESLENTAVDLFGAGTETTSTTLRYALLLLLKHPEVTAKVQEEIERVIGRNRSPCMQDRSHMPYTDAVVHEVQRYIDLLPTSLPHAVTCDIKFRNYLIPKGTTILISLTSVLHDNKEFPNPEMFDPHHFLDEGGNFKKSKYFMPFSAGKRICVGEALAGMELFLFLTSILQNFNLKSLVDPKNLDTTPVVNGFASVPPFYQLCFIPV
T3 sequence (P10635 whole entry): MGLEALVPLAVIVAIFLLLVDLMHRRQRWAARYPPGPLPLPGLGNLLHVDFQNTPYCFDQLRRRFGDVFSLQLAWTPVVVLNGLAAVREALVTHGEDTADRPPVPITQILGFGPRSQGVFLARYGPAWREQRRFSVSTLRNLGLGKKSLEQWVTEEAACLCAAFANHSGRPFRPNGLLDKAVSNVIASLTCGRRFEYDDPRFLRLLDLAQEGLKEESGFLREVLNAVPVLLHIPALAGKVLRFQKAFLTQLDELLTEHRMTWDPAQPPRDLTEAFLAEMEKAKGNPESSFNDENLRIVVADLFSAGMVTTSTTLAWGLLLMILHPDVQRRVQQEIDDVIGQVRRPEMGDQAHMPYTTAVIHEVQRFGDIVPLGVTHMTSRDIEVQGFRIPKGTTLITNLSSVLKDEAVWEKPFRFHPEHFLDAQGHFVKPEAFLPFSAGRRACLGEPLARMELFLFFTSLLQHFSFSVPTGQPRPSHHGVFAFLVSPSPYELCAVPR
T1 sequence (P33261 whole entry): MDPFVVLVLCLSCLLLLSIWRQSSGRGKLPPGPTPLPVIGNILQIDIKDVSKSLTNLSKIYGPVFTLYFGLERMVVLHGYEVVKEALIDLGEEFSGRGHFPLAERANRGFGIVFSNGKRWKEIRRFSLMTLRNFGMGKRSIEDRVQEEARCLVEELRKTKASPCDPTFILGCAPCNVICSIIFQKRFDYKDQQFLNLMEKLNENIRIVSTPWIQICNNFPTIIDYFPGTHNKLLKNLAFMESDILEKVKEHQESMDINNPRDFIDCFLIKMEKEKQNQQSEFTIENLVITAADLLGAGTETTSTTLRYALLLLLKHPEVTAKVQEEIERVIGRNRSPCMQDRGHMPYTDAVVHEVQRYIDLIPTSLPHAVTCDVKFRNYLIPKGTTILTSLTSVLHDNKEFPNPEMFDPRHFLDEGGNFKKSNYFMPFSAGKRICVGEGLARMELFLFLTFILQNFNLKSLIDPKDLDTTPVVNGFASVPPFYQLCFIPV

`CC1NC(C2CC2)C(=O)N(C)C(C)C(=O)NC(Cc2ccc(O)cc2)C(=O)NCCCc2ccccc2OC1C` (stereo not drawn) [Compound 820]: the half-maximal inhibitory concentration (IC50) on CYP2C19, on CYP2E1, on CYP2D6, at CYP2C9 and on CYP1A2 was above 100 µM each time. Also, the “Percent Increase in Gastric Emptying After Oral Administration” value (“Percent Increase” below) with fasted rats (dose 1 mg/kg) turned out to be 6%; with fasted rats (dose 3 mg/kg), 20%; with fasted rats (dose 10 mg/kg) it was 22%. In addition, the “Elimination Half-life (t1/2, rat, min)” value in data set [1] (8 mg/kg dose) stood at 137 min. In data set [1] (8 mg/kg dose), the “Oral Bioavailability (rat, % F)” value is listed as 18 % F.
As for `CC(C)CC1NC(=O)C(C)N(C)C(=O)C(C2CCCCC2)NCC(C)OC2CCCCC2CCCNC1=O` (mixture of isomers) [Compound 828], the IC50 on CYP2C19, on CYP2E1, at CYP2D6, on CYP2C9 and on CYP1A2 was above 100 µM each time. For the same molecule, in the data set on fasted rats (dose 3 mg/kg), the “Percent Increase” value turned out to be 24%.
Regarding `CC(C)C[C@H]1NC(=O)[C@@H](C)N(C)C(=O)[C@H](C2CC2)NC[C@@H](C)Oc2ccccc2CC[C@H](C)NC1=O` [Compound 807], the IC50 at CYP2C19, at CYP2E1, at CYP2D6, on CYP2C9 and at CYP1A2 was above 100 µM in each case. Further, the “Percent Increase” value in the data set on fasted rats (dose 1 mg/kg) came out at 17%; in the data set with fasted rats (dose 3 mg/kg), 31%; in the data set on fasted rats (dose 10 mg/kg), 41%. Further, in the data set with fasted rats (oral, up to 24 h post-dose), the “gastric emptying rates remained increased” value is 18-23%. Besides, the “Oral Bioavailability (rat, % F)” value in data set [1] (8 mg/kg dose) was determined as 23 % F. The half-life in data set [1] (plasma, 8 mg/kg dose, read-out: Elimination Half-life (t1/2, rat, min)) came to 197 min.
Consider `CC(C)C[C@H]1NC(=O)[C@@H](C)N(C)C(=O)[C@H](C2CC2)NCCOc2cc(F)ccc2CC[C@H](C)NC1=O` [Compound 822], for which the IC50 at CYP2C19, on CYP2E1, at CYP2D6, on CYP2C9 and on CYP1A2 was above 100 µM in each case. Moreover, the “Percent Increase” value in the data set with fasted rats (dose 3 mg/kg) is given as 6%. The “Elimination Half-life (t1/2, rat, min)” value in data set [1] (2 mg/kg dose (compound 822)) was 65 min. The “Oral Bioavailability (rat, % F)” value in data set [1] (2 mg/kg dose (compound 822)) worked out at 51 % F.
Turning to `C[C@@H]1C(=O)N[C@H](Cc2ccc(O)cc2)C(=O)NCCCc2cccc3c2O[C@H](CC3)CN[C@@H](C2CC2)C(=O)N1C` [Compound 803], the IC50 on CYP2C19, on CYP2E1, at CYP2D6, at CYP2C9 and on CYP1A2 was above 100 µM each time. Also, the “Elimination Half-life (t1/2, rat, min)” value in data set [1] (8 mg/kg dose) was determined as 151 min. Moreover, the “Oral Bioavailability (rat, % F)” value in data set [1] (8 mg/kg dose) turned out to be 9 % F.
As for `CC(C)C[C@H]1NC(=O)[C@@H](C)N(C)C(=O)[C@H](C2CC2)NCCOc2cc(F)ccc2CCCNC1=O` [Compound 810], the IC50 at CYP2C19 was above 100 µM; on CYP2E1, above 100 µM; at CYP2D6 it was above 100 µM; at CYP2C9 it was above 100 µM; on CYP1A2 it was 69 µM. Also, the “Elimination Half-life (t1/2, rat, min)” value in data set [1] (8 mg/kg dose) is 116 min. The “Oral Bioavailability (rat, % F)” value in data set [1] (8 mg/kg dose) is reported as 15 % F.
As for `CC1CNC(C2CC2)C(=O)N(C)C(C)C(=O)NC(Cc2ccc(O)cc2)C(=O)NCCCC2CCCCC2O1` (mixture of isomers) [Compound 826], the IC50 at CYP2C19, on CYP2E1, on CYP2D6, on CYP2C9 and at CYP1A2 was above 100 µM in each case. For the same molecule, the “Percent Increase” value with fasted rats (dose 1 mg/kg) was 19%; in the data set with fasted rats (dose 3 mg/kg), 12%; with fasted rats (dose 10 mg/kg) it was 30%. For the same molecule, the “Elimination Half-life (t1/2, rat, min)” value in data set [1] (8 mg/kg dose) is recorded as 77 min. Moreover, the “Oral Bioavailability (rat, % F)” value in data set [1] (8 mg/kg dose) was found to be 29 % F.
As to `CC(C)CC1NC(=O)C(C)N(C)C(=O)C(C2CC2)NCC(C)OC2CCCCC2CCCNC1=O` (mixture of isomers) [Compound 825], the IC50 at CYP2C19, on CYP2E1, on CYP2D6, at CYP2C9 and on CYP1A2 was above 100 µM throughout. Moreover, the “Elimination Half-life (t1/2, rat, min)” value in data set [1] (8 mg/kg dose) was determined as 101 min. In addition, the “Oral Bioavailability (rat, % F)” value in data set [1] (8 mg/kg dose) came to 37 % F.
For the molecule `C[C@@H]1C(=O)N[C@H](Cc2ccc(O)cc2)C(=O)NCCCc2ccc(F)cc2OCCN[C@@H](C2CC2)C(=O)N1C` [Compound 809], the concentration for half-maximal inhibition (IC50) at CYP2C19, at CYP2E1, on CYP2D6, at CYP2C9 and on CYP1A2 was above 100 µM each time. Also, in the data set on fasted rats (dose 3 mg/kg), the “Percent Increase” value worked out at 5%.

Usually IC50 stands for the concentration needed to halve the response being measured.

Values taken from patent US10258602B2 (Ocera Therapeutics, Inc., priority 2007, dated 2019).
